Laboratory results taken from publication PMC7872319, “Probing Biomolecular Interactions by a Pattern-Forming Peptide–Conjugate Sensor” (Bioconjugate Chemistry, 2020).
Entries after “also recorded” stand apart in the source; their conditions may differ. Like-named read-outs stand apart in the source and are kept apart here.

What was measured:
[1] = target: T1, MinD ATPase (Escherichia coli, UniProt P0AEZ3); assay: MinD ATPase assay: free biotin competing with MinE(13-31)-biotin for divalent streptavidin; type: biochemical; design: His (N); made in house; host or cells: E. coli BL21 (DE3)
T1 sequence (P0AEZ3 1-270): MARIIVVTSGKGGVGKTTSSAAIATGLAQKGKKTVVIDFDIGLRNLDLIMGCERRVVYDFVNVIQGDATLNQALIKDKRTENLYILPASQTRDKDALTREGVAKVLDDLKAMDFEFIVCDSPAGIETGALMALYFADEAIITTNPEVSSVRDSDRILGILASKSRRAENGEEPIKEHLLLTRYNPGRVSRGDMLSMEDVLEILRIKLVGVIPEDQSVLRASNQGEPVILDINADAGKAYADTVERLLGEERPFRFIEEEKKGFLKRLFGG

[2] = system: MinD; details: 1 μM MinD, 500 nM MinE(13-31)-biotin, 90 nM divalent streptavidin
[3] = target: T1, MinD ATPase; details: 1 μM MinD, controls: four technical replicates, unconjugated peptide or single unhybridized conjugate
[4] = target: T1, MinD ATPase; details: read-out: IC50 of MinD ATPase activity; unconjugated ssDNA competitor added to MinD with common 10 nt + complementary 10 nt peptide conjugates; two independent assays, each three technical replicates; 95% CI (nM): 12-mer 60.3 to 81.9, 10-mer 393.6 to 772.0, 7-mer 1557.0 to 2730.0
[5] = system: MinD; assay: Self-organization assay: ssDNA competition with preformed dsDNA-peptide conjugate; type: biochemical, Escherichia coli; details: 160 nM common 10 nt and 10 nt peptide conjugates preincubated with 1 μM MinD, competitor added in increasing amounts
Method: Supported lipid bilayers (SLBs) were formed by fusion of SUVs in a 96-well plate with a glass bottom (Greiner Bio-One, Kremsmünster, Austria). Plates were cleaned for 30 s (30% power, 0.3 mbar) in a Zepto plasma cleaner (Diener electronic GmbH, Ebhausen, Germany) using oxygen as the process gas. Lipids were prepared as described above, except that sonication was used instead of freeze–thaw cycles to form SUVs. SUVs were added to each reaction chamber at a final concentration of 0.6 mg/mL and incubated for 2 min on a 37 °C warm heating block.
All self-organization assays were performed as previously described.[12],[30] […] For fluorescence imaging, MinD was doped with 30% ATTO655-KCK-MinD.
Imaging was performed on either a commercial Zeiss LSM800 or LSM780 confocal microscope each equipped with a Zeiss C-Apochromat 40X/1.20 water-immersion objective (Carl Zeiss AG, Oberkochen, Germany). ATTO655-KCK-MinD was excited at 640 nm and imaging was performed with a pinhole diameter of 1 Airy unit.
Image analysis was performed in Fiji with the Radial Profile plugin (https://imagej.nih.gov/ij/plugins/radial-profile.html) using custom macro scripts.[31],[32] To discriminate among different patterns and to further characterize them, two approaches were applied. In the first, autocorrelation analysis was performed for each image. A soft windowing function (raised-cosine window, 1 at the center and 0.75 at the edges) was applied to reduce edge effects. Then the autocorrelation image was computed, from which a radial amplitude profile was generated. The position of the first peak in the profile was identified as the correlation distance. Patterns were further analyzed by computing the percentage variation of the correlation intensity along the ring in the autocorrelation image, here defined as correlation dispersion. […] Once separated, the pattern types were further characterized on the basis of additional parameters. Specifically, for the quasi-stationary patterns we used the spot density, derived from the reciprocal of the squared correlation distance, or the correlation distance itself. […]

Compound: O=C(O)CCCC[C@@H]1SC[C@@H]2NC(=O)N[C@@H]21 [free biotin, biotin]
- IC50 [1]: 8.7 nM
- free biotin concentration for complete abolition of patterns [2]: approximately 50 nM

Compound: N-term-NTANIAKERLQIIVAERRRGSGK(N3)-C-term [MinE(13-31)]
- MinD ATPase stimulation (in words) [3]: only able to slightly stimulate MinD’s ATPase activity
- MinD ATPase stimulation (in words) ([3]; listed as unconjugated peptide): slightly elevated

Compound: 12-mer: competitor ssDNA 5`-CTAGATGTATAA-3`, 12 overlaps (DNA, backbone not given here)
- IC50 [4]: 70.3 nM
- alteration/abolition of MinD patterns by ssDNA competitor [5]: alteration, and ultimately abolition, of protein patterns; also recorded: clear transformation from propagating surface waves, through quasi-stationary patterns (reverse hexagons), to the complete abolition of protein patterns

Compound: 10-mer: competitor ssDNA 5`-AGATGTATTT-3`, 8 overlaps (DNA, backbone not given here)
- IC50 [4]: 551 nM
- alteration/abolition of MinD patterns by ssDNA competitor [5]: abolition of MinD self-organization, but only at higher concentrations in comparison to the 12-mer; also recorded: altered wavelengths of the protein patterns, before eventually abolishing them completely
- alteration/abolition of MinD patterns by ssDNA competitor ([5]; listed as 10mer): alteration, and ultimately abolition, of protein patterns
